Here are results for 29 molecules from US9212182B2, “Bicyclic sulfonamide compounds as sodium channel inhibitors” (AMGEN INC., priority 2013, dated 2015).

As usually defined, the IC50 is the concentration needed to halve the response being measured. Lower therefore signals higher potency.

Structures are written as SMILES. Where two headings read alike, the source gives them in different places.

The assay has as its target Nav 1.7 (Homo sapiens (Human), UniProt Q15858). Briefly: in-vitro Nav 1.7 PX (IC50). It is filed as cell-based.
The mark [1] stands for this setting: in-vitro Nav 1.7 PX data (PatchXpress).

Chain of Nav 1.7 (Q15858 whole entry): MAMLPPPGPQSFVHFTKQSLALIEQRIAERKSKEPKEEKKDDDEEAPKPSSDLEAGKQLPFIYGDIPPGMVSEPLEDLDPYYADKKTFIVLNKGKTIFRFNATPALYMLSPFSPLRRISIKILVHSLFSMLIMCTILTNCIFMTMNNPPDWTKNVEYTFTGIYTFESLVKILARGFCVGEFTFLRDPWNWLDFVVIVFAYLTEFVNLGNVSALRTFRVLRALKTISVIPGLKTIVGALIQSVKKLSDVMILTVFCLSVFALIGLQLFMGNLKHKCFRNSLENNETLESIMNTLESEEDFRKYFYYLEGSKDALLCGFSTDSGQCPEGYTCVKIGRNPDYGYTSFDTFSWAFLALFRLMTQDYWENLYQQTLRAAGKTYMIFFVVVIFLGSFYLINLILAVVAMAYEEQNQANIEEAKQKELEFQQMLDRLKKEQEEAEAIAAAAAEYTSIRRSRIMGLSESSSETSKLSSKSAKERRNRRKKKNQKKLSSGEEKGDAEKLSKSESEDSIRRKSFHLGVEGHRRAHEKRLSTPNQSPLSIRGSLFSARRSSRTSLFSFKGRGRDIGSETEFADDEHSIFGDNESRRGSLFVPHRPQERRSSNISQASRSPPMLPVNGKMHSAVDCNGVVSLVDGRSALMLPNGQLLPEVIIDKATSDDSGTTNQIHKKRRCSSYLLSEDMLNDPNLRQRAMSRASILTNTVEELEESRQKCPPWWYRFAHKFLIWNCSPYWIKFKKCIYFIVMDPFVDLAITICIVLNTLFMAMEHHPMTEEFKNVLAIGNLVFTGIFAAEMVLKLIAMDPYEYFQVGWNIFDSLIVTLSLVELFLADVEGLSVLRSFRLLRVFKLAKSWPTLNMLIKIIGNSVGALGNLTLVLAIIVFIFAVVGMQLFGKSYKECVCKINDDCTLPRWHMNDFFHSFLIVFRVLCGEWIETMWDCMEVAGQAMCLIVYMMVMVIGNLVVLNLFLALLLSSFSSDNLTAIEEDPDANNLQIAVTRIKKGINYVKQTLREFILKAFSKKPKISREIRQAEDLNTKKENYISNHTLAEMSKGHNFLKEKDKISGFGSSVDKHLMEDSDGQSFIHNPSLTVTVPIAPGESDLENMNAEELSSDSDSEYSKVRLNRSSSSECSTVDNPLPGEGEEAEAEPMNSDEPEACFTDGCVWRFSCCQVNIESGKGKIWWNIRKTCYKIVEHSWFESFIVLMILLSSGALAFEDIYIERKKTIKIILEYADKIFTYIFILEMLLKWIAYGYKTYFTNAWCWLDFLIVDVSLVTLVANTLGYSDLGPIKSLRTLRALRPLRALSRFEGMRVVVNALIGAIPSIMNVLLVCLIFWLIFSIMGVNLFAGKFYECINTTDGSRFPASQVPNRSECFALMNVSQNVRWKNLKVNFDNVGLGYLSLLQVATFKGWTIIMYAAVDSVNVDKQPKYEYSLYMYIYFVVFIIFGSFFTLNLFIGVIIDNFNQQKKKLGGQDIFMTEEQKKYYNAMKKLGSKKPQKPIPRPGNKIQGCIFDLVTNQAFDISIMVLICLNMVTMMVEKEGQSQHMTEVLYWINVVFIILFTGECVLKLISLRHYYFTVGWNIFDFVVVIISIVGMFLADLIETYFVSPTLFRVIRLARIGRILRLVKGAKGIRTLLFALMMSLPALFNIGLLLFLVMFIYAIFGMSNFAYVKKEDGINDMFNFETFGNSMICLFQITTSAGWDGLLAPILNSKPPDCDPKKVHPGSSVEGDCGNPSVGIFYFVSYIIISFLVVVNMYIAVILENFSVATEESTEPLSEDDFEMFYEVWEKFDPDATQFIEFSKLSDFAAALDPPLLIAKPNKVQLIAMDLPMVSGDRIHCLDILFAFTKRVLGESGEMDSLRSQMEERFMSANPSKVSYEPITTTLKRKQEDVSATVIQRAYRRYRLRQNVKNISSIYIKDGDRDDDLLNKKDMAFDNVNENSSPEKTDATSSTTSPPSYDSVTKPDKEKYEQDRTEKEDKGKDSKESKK

Turning to `COc1cc(-c2ccc(Cl)c(C)c2)c(F)cc1-n1c(=O)ccc2cc(S(=O)(=O)Nc3nncs3)ccc21` [Example 1074, 1-(4′-chloro-2-fluoro-5-methoxy-3′-methyl-4-biphenylyl)-2-oxo-N-1,3,4-thiadiazol-2-yl-1,2-dihydro-6-quinolinesulfonamide], 0.003 µM corresponded to half-maximal inhibition (in-vitro Nav 1.7 PX data) (IC50).

The molecule `COc1cc(-c2cc(Cl)cnc2OC)c(F)cc1-n1c(=O)ccc2cc(S(=O)(=O)Nc3ncc(F)cn3)ccc21` [Example 774, 1-(4-(5-chloro-2-methoxy-3-pyridinyl)-5-fluoro-2-methoxyphenyl)-N-(5-fluoro-2-pyrimidinyl)-2-oxo-1,2-dihydro-6-quinolinesulfonamide] yielded an IC50 (in-vitro Nav 1.7 PX data) of 0.048 µM.

Turning to `COc1cc(-c2ccc(F)c(F)c2)ccc1-n1c(=O)ccc2cc(S(=O)(=O)Nc3ccon3)ccc21` [Example 1014, 1-(3′,4′-difluoro-3-methoxy-4-biphenylyl)-N-3-isoxazolyl-2-oxo-1,2-dihydro-6-quinolinesulfonamide], for the setting “in-vitro Nav 1.7 PX data”, the midpoint of inhibition, the IC50, lay at 0.053 µM.

Turning to `CCc1cccc(-c2cc(OC)c(-n3c(=O)ccc4cc(S(=O)(=O)Nc5ccon5)ccc43)cc2F)c1` [Example 791, 1-(3′-ethyl-2-fluoro-5-methoxy-4-biphenylyl)-N-3-isoxazolyl-2-oxo-1,2-dihydro-6-quinolinesulfonamide], half-maximal inhibition (in-vitro Nav 1.7 PX data) (IC50) was put at 0.009 µM. Compared with the last molecule, the IC50 is about 5.9-fold lower.

As to `COc1ccc(F)c(-c2cc(OC)c(-n3c(=O)ccc4cc(S(=O)(=O)Nc5ncccn5)ccc43)cc2C)c1` [Example 965, 1-(2′-fluoro-5,5′-dimethoxy-2-methyl-4-biphenylyl)-2-oxo-N-2-pyrimidinyl-1,2-dihydro-6-quinolinesulfonamide], inhibition (in-vitro Nav 1.7 PX data) was half-maximal at 0.074 µM (IC50). Compared with the last molecule, the IC50 is about 8.2-fold higher.

`COc1cc(-c2cccc(C)c2)c(F)cc1-n1c(=O)ccc2cc(S(=O)(=O)Nc3cccnn3)ccc21` [Example 1108, 1-(2-fluoro-5-methoxy-3′-methyl-4-biphenylyl)-2-oxo-N-3-pyridazinyl-1,2-dihydro-6-quinolinesulfonamide] returned an IC50 (in-vitro Nav 1.7 PX data) of 0.021 µM.

Under setting [1], `COc1cc(-c2cc(F)c(F)cc2C)ccc1-n1c(=O)ccc2cc(S(=O)(=O)Nc3ccon3)ccc21` [Example 1064, 1-(4′,5′-difluoro-3-methoxy-2′-methyl-4-biphenylyl)-N-3-isoxazolyl-2-oxo-1,2-dihydro-6-quinolinesulfonamide] came in with an IC50 of 0.013 µM.

Where the note is “in-vitro PatchXpress (PX)”, `COc1cc(Cl)cc(-c2cc(OC)c(-n3c(=O)ccc4cc(S(=O)(=O)Nc5ccon5)ccc43)cc2F)c1` (atropisomer, axis not shown; (M)) [Example 502, (M)-1-(3′-chloro-2-fluoro-5,5′-dimethoxy-4-biphenylyl)-N-3-isoxazolyl-2-oxo-1,2-dihydro-6-quinolinesulfonamide] showed an IC50 of 1.23 µM.

For the molecule `COc1cc(-c2cnc(OC)c(Cl)c2)c(F)cc1-n1c(=O)ccc2cc(S(=O)(=O)Nc3cccnn3)ccc21` (atropisomer, axis not shown; (P)) [Example 1157, (P)-1-(4-(5-chloro-6-methoxy-3-pyridinyl)-5-fluoro-2-methoxyphenyl)-2-oxo-N-3-pyridazinyl-1,2-dihydro-6-quinolinesulfonamide], the IC50 stood at 0.063 µM. In other words, the double-digit nanomolar range.

The molecule `COc1ccc(-c2cc(F)cc(Cl)c2)cc1-n1c(=O)ccc2cc(S(=O)(=O)Nc3ccon3)ccc21` [Example 858, 1-(3′-chloro-5′-fluoro-4-methoxy-3-biphenylyl)-N-3-isoxazolyl-2-oxo-1,2-dihydro-6-quinolinesulfonamide] displayed an IC50 (in-vitro Nav 1.7 PX data) of 0.025 µM.

In turn, `COc1nc(-c2ccc(Cl)c(C)c2)c(Cl)cc1-n1c(=O)ccc2cc(S(=O)(=O)Nc3ccon3)ccc21` [Example 448, 1-(5-chloro-6-(4-chloro-3-methylphenyl)-2-methoxypyridin-3-yl)-N-(isoxazol-3-yl)-2-oxo-1,2-dihydroquinoline-6-sulfonamide] yielded an IC50 (in-vitro PatchXpress (PX)) of 0.115 µM.

With `COc1nc(C2CC2)c(Cl)cc1-n1c(=O)ccc2cc(S(=O)(=O)Nc3ccon3)ccc21` (atropisomer, axis not shown; (P)) [Example 1230, (P)-1-(5-chloro-6-cyclopropyl-2-methoxy-3-pyridinyl)-N-3-isoxazolyl-2-oxo-1,2-dihydro-6-quinolinesulfonamide], the IC50 is 0.472 µM.

The molecule `COc1ccc(-c2cc(F)cnc2OC)cc1-n1c(=O)ccc2cc(S(=O)(=O)Nc3ccon3)ccc21` [Example 488, 1-(5-(5-fluoro-2-methoxy-3-pyridinyl)-2-methoxyphenyl)-N-3-isoxazolyl-2-oxo-1,2-dihydro-6-quinolinesulfonamide] showed an IC50 of 0.299 µM.

Molecule `COc1cc(-c2ccc(Cl)c(C)c2)ccc1-n1c(=O)cnc2cc(S(=O)(=O)Nc3ncccn3)ccc21` [Example 1199, 1-(4′-chloro-3-methoxy-3′-methyl-4-biphenylyl)-2-oxo-N-2-pyrimidinyl-1,2-dihydro-6-quinoxalinesulfonamide] yielded an IC50 of 0.127 µM. Compared with the last molecule, the IC50 is about 2.4-fold lower.

As to `COc1nc(-c2cc(F)cc(F)c2)c(Cl)cc1-n1c(=O)ccc2cc(S(=O)(=O)Nc3ccon3)ccc21` (atropisomer, axis not shown; (M)) [Example 666, (M)-1-(5-chloro-6-(3,5-difluorophenyl)-2-methoxy-3-pyridinyl)-N-3-isoxazolyl-2-oxo-1,2-dihydro-6-quinolinesulfonamide], for the setting “in-vitro Nav 1.7 PX data”, the half-inhibitory concentration (IC50) turned out to be 1.06 µM.

For the molecule `COc1cc(-c2ccc(OC)c(-n3c(=O)ccc4cc(S(=O)(=O)Nc5ccon5)ccc43)c2)ccc1F` [Example 889, 1-(4′-fluoro-3′,4-dimethoxy-3-biphenylyl)-N-3-isoxazolyl-2-oxo-1,2-dihydro-6-quinolinesulfonamide], 0.184 µM corresponded to half-maximal inhibition (in-vitro Nav 1.7 PX data) (IC50).

Molecule `COc1cc(-c2cccc(Cl)c2)cc(F)c1-n1c(=O)ccc2cc(S(=O)(=O)Nc3ccon3)ccc21` (atropisomer, axis not shown; (M)) [Example 319, (M)-1-(3′-chloro-3-fluoro-5-methoxy-4-biphenylyl)-N-3-isoxazolyl-2-oxo-1,2-dihydro-6-quinolinesulfonamide] showed an IC50 of 0.207 µM.

Consider `Cc1cc(-c2cc(OCC#N)c(-n3c(=O)ccc4cc(S(=O)(=O)Nc5ccon5)ccc43)cc2F)ccc1Cl` [Example 622, 1-(4′-chloro-5-(cyanomethoxy)-2-fluoro-3′-methyl-[1,1′-biphenyl]-4-yl)-N-(isoxazol-3-yl)-2-oxo-1,2-dihydroquinoline-6-sulfonamide], for which the IC50 under setting [1] was found to be 0.312 µM.

As for `COc1cc(-c2ccc(F)c(C)c2)c(F)cc1-n1c(=O)ccc2cc(S(=O)(=O)Nc3ncccn3)ccc21` [Example 940, 1-(2,4′-difluoro-5-methoxy-3′-methyl-4-biphenylyl)-2-oxo-N-2-pyrimidinyl-1,2-dihydro-6-quinolinesulfonamide], the IC50 (in-vitro Nav 1.7 PX data) stood at 0.034 µM.

For `COc1cc(Br)c(C)cc1-n1c(=O)ccc2cc(S(=O)(=O)Nc3ccon3)ccc21` (atropisomer, axis not shown; (P)) [Example 415, (P)-1-(4-bromo-2-methoxy-5-methylphenyl)-N-3-isoxazolyl-2-oxo-1,2-dihydro-6-quinolinesulfonamide], the IC50 stood at 0.269 µM.

`COc1cc(-c2ccc(Cl)c(C)c2)ccc1-n1c(=O)ccc2cc(S(=O)(=O)Nc3ccon3)ccc21` (atropisomer, axis not shown; (P)) [Example 432, (P)-1-(4′-chloro-3-methoxy-3′-methyl-4-biphenylyl)-N-3-isoxazolyl-2-oxo-1,2-dihydro-6-quinolinesulfonamide] yielded an IC50 of 0.009 µM. Compared with the last molecule, the IC50 is about 30-fold lower.

In the case of `COc1cc(-c2cccc(C)c2)c(F)cc1-n1c(=O)ccc2cc(S(=O)(=O)Nc3ncccn3)ccc21` [Example 1107, 1-(2-fluoro-5-methoxy-3′-methyl-4-biphenylyl)-2-oxo-N-2-pyrimidinyl-1,2-dihydro-6-quinolinesulfonamide], where the note is “in-vitro Nav 1.7 PX data”, 0.032 µM corresponded to half-maximal inhibition (IC50). In other words, the double-digit nanomolar range.

In turn, `COc1cc(C2CC2)ccc1-n1c(=O)ccc2cc(S(=O)(=O)Nc3ccon3)ccc21` (atropisomer, axis not shown; (P)) [Example 1210, (P)-1-(4-cyclopropyl-2-methoxyphenyl)-N-3-isoxazolyl-2-oxo-1,2-dihydro-6-quinolinesulfonamide] had an IC50 of 2.37 µM.

`COc1cc(F)cc(-c2ccc(-n3c(=O)ccc4cc(S(=O)(=O)Nc5ccon5)ccc43)c(OC)c2)c1` [Example 1018, 1-(3′-fluoro-3,5′-dimethoxy-4-biphenylyl)-N-3-isoxazolyl-2-oxo-1,2-dihydro-6-quinolinesulfonamide]: the IC50 (in-vitro Nav 1.7 PX data) worked out at 0.013 µM.

As for `COc1cc(-c2cc(OC)c(-n3c(=O)ccc4cc(S(=O)(=O)Nc5cccnn5)ccc43)cc2F)ccc1F` [Example 1007, 1-(2,4′-difluoro-3′,5-dimethoxy-4-biphenylyl)-2-oxo-N-3-pyridazinyl-1,2-dihydro-6-quinolinesulfonamide], it took 0.131 µM to reach half-maximal inhibition (in-vitro Nav 1.7 PX data) (IC50).

Regarding `COc1cc(-c2cc(Cl)ccc2C)ccc1-n1c(=O)ccc2cc(S(=O)(=O)Nc3ncco3)ccc21` [Example 1067, 1-(5′-chloro-3-methoxy-2′-methyl-4-biphenylyl)-N-1,3-oxazol-2-yl-2-oxo-1,2-dihydro-6-quinolinesulfonamide], the IC50 under setting [1] is 0.006 µM.

Turning to `O=c1ccc2cc(S(=O)(=O)Nc3ccon3)ccc2n1-c1ccc(-c2cc(F)cc(F)c2)cc1C1CC1` (atropisomer, axis not shown; (P)) [Example 629, (P)-1-(3-cyclopropyl-3′,5′-difluoro-4-biphenylyl)-N-3-isoxazolyl-2-oxo-1,2-dihydro-6-quinolinesulfonamide], the IC50 under setting [1] was found to be 0.127 µM.

As to `COc1cc(-c2ccc(-n3c(=O)ccc4cc(S(=O)(=O)Nc5ccon5)ccc43)c(OC)c2)ccc1C` (atropisomer, axis not shown; (P)) [Example 686, (P)-1-(3,3′-dimethoxy-4′-methyl-4-biphenylyl)-N-3-isoxazolyl-2-oxo-1,2-dihydro-6-quinolinesulfonamide], 0.015 µM corresponded to half-maximal inhibition (in-vitro Nav 1.7 PX data) (IC50).

For `COc1cc(-c2cccc(Cl)c2)ccc1-n1c(=O)ccc2cc(S(=O)(=O)Nc3ccon3)ccc21` [Example 350, P-1-(3′-chloro-3-methoxy-[1,1′-biphenyl]-4-yl)-N-(isoxazol-3-yl)-2-oxo-1,2-dihydroquinoline-6-sulfonamide], 0.026 µM corresponded to half-maximal inhibition (IC50).
